In US11066419B2, “1H-pyrrole-2,5-dione compounds and methods of using same” (Frequency Therapeutics, Inc., priority 2016, dated 2021):

What was measured:
Lgr5-positive cells = assay: Expansion of Lgr5-positive cells (cochlear stem cell expansion, 3D Matrigel culture, flow cytometry for Lgr5-GFP); type: cell-based, mouse; details: for EC50: Mus musculus, 240 h, Lgr5-positive cell expansion, cochlear cells of neonatal Lgr5-EGFP-IRES-Cre-ER mice, 10 days in culture, read-out: Potency; for % of Cells: percentage of Lgr5-GFP-positive cells after 10 days (D10) in culture, flow cytometer
Procedure: Lgr5-EGFP-IRES-Cre-ER mice (Barker et al., 2007) (http://jaxmice.jax.org/strain/008875.html) are used to analyze the effects of small molecules on cochlear stem cell expansion.
Isolation of stem cells from the inner ear: All animal studies are conducted under an approved institutional protocol according to National Institutes of Health guidelines. For experiments with neonatal mice (postnatal days 1-3), the cochleae are dissected in HBSS and the organ of Corti are separated from the stria vascularis and the modiolus. The organs of Corti are then treated with Cell Recovery Solution (Corning) for 1 h to separate cochlear epithelium from the underlying mesenchyme. Epithelia are then collected and treated with TrypLE (Life Technologies) for 15-20 minutes at 37° C. Single cells obtained by mechanical trituration are filtered (40 μm) and suspended in Matrigel (Corning) for 3D culture.
Cells are cultured in a 1:1 mixture of DMEM and F12, supplemented with Glutamax (GIBCO), N2, B27 (Invitrogen), EGF (50 ng/ml; Chemicon), bFGF (50 ng/ml; Chemicon), IGF1 (50 ng/ml; Chemicon) and the composition provided herein. Media are changed every other day.
Lgr5-positive cells are quantified after 10 days (D10) in culture in multiple conditions. Cell colonies are dissociated into single cells using TrypLE (Gibco). The cells are then stained with propidium iodide (PI) and are analyzed using a flow cytometer for Lgr5-GFP expression. The number of GFP-positive cells and the percentage of GFP-positive cells are quantified.

recombinant human GSK3α = recombinant human GSK3α (Homo sapiens, UniProt P49840); assay: In vitro enzymatic assay for inhibition of GSK3α (Kinase-Glo Max luminescence); type: biochemical; details: 10 uM ATP, 0.1 mg/ml GSKtide, 30° C. 40 minutes, read-out: Potency Alpha
recombinant human GSK3α, sequence (P49840 whole entry): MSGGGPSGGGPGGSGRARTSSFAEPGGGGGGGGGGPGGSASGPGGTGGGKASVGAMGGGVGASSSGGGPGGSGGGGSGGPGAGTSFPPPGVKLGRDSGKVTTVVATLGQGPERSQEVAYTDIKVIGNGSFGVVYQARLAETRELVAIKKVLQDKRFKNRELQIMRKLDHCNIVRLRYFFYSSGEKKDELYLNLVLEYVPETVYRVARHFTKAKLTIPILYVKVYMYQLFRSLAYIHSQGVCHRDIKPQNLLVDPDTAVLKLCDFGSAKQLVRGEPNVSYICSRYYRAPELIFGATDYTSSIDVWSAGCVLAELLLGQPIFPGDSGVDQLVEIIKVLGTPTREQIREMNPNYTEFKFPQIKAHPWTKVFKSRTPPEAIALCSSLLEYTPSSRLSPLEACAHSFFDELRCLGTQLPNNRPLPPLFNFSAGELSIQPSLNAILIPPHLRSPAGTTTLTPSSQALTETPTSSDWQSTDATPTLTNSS
Procedure: (§1) Enzymatic activities using recombinant human GSK3 using an in vitro enzymatic assay for inhibition GSK3α and GSK3β.
(§2) The assay was performed using Kinase-Glo Max luminescence kinase assay kit (Promega). It measures kinase activity by quantitating the amount of ATP remaining in solution following a kinase reaction. The luminescent signal from the assay is correlated with the amount of ATP present and is inversely correlated with the amount of kinase activity. The compounds were diluted in 10% DMSO and 5 μl of the dilution was added to a 50 μl reaction so that the final concentration of DMSO is 1% in all of reactions. The enzymatic reactions were conducted at 30° C. for 40 minutes. The 50 μl reaction mixture contains 40 mM Tris, pH 7.4, 10 mM MgCl2, 0.1 mg/ml BSA, 2 mM DTT, 0.1 mg/ml GSKtide substrate, 10 uM ATP and GSK3. After the enzymatic reaction, 50 μl of Kinase-Glo Max Luminescence kinase assay solution (Promega) was added to each reaction and incubate the plate for 15 minutes at room temperature. Luminescence signal was measured using a BioTek Synergy 2 microplate reader.
(§3) Kinase activity assays were performed in duplicate at each concentration. The luminescence data were analyzed using the computer software, Graphpad Prism. The difference between luminescence intensities in the absence of Kinase (Lut) and in the presence of Kinase (Luc) was defined as 100% activity (Lut−Luc). Using luminescence signal (Lu) in the presence of the compound, % activity was calculated as: % activity={(Lut−Lu)/(Lut−Luc)}×100%, where Lu=the luminescence intensity in the presence of the compound (all percent activities below zero were shown zero in the table).
(§4) The values of % activity versus a series of compound concentrations were then plotted using non-linear regression analysis of Sigmoidal dose-response curve generated with the equation Y=B+(T−B)/1+10((Log EC50−X)×Hill Slope), where Y=percent activity, B=minimum percent activity, T=maximum percent activity, X=logarithm of compound and Hill Slope=slope factor or Hill coefficient. The IC50 value was determined by the concentration causing a half-maximal percent activity.

recombinant human GSK3β = recombinant human GSK3β (Homo sapiens, UniProt P49841); assay: In vitro enzymatic assay for inhibition of GSK3β (Kinase-Glo Max luminescence); type: biochemical; details: 10 uM ATP, 0.1 mg/ml GSKtide, 30° C. 40 minutes, read-out: Potency Beta
recombinant human GSK3β, sequence (P49841 whole entry): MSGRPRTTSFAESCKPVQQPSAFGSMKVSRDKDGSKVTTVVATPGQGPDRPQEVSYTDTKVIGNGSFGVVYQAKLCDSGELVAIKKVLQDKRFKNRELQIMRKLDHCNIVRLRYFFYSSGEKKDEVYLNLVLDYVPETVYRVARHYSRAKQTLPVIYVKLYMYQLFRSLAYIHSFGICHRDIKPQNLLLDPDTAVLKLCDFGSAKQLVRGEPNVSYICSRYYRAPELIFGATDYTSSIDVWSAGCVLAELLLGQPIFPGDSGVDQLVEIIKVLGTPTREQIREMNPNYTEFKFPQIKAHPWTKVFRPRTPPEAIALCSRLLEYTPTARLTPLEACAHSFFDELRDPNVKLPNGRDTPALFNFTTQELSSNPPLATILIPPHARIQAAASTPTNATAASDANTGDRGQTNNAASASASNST
Procedure: as §1, §2, §3, §4

SMILES | EC50 (Lgr5-positive cells) | % of Cells (Lgr5-positive cells) | IC50 (recombinant human GSK3α) | IC50 (recombinant human GSK3β)
O=C1NC(=O)C(c2cnc3ccccn23)=C1c1cn2c3c(cc(C(F)(F)F)cc13)CN(C(=O)N1CCCCC1)CC2 [Compound I-1] | 1 to 100 nM | +++ (“+++” indicates greater than about 11%) | 1 to 10 nM | 1 to 10 nM
N#Cc1cc2c3c(c1)c(C1=C(c4cnc5ccccn45)C(=O)NC1=O)cn3CCN(C(=O)N1CCCCC1)C2 [Compound I-2] | 1 to 100 nM | +++ (“+++” indicates greater than about 11%) | 1 to 10 nM | 1 to 10 nM
C#Cc1cc2c3c(c1)c(C1=C(c4cnc5ccccn45)C(=O)NC1=O)cn3CCN(C(=O)N1CCCCC1)C2 [Compound I-3] | 1 to 100 nM | +++ (“+++” indicates greater than about 11%) | 1 to 10 nM | 1 to 10 nM
Nc1cc2c3c(c1)c(C1=C(c4cnc5ccccn45)C(=O)NC1=O)cn3CCN(C(=O)N1CCCCC1)C2 [Compound I-4] | 100 to 1000 nM | +++ (“+++” indicates greater than about 11%) | 1 to 10 nM | 1 to 10 nM
O=C1NC(=O)C(c2cnc3ccccn23)=C1c1cn2c3c(cc(F)cc13)CN(C(=O)N1CCC(CO)CC1)CC2 [Compound I-6] | 1 to 100 nM | +++ (“+++” indicates greater than about 11%) | 1 to 10 nM | 1 to 10 nM
O=C1NC(=O)C(c2cnc3ccccn23)=C1c1cn2c3c(cc(F)cc13)CN(C(=O)N1CCC(F)(F)CC1)CC2 [Compound I-7] | 1 to 100 nM | ++ (“++” indicates about 6-10%) | 1 to 10 nM | 1 to 10 nM
O=C1NC(=O)C(c2cnc3ccccn23)=C1c1cn2c3c(cc(F)cc13)CN(C(=O)N1CC3CCC(C1)O3)CC2 [Compound I-8] | 1 to 100 nM | +++ (“+++” indicates greater than about 11%) | 1 to 10 nM | 1 to 10 nM
O=C1NC(=O)C(c2cn3c4c(cc(F)cc24)CN(C(=O)N2CCCCC2)CC3)=C1c1noc2ccccc12 [Compound I-9] | > 1000 nM | +++ (“+++” indicates greater than about 11%) | 10 to 100 nM | 1 to 10 nM
CC(=O)Nc1cc2c3c(c1)c(C1=C(c4cnc5ccccn45)C(=O)NC1=O)cn3CCN(C(=O)N1CCCCC1)C2 [Compound I-10] | > 1000 nM | + (“+” indicates about 0-5%) | 1 to 10 nM | 1 to 10 nM
O=C1NC(=O)C(c2cnc3ccccn23)=C1c1cn2c3c(cc(F)cc13)CN(C(=O)N1CCCC(F)(F)C1)CC2 [Compound I-12] | 1 to 100 nM | +++ (“+++” indicates greater than about 11%) | 1 to 10 nM | 1 to 10 nM
O=C1NC(=O)C(c2cnc3ccccn23)=C1c1cn2c3c(cc(F)cc13)CN(C(=O)N1C[C@H]3C[C@@H]1CN3)CC2 [Compound I-13] | > 1000 nM | +++ (“+++” indicates greater than about 11%) | 1 to 10 nM | 1 to 10 nM
N#Cc1cc2c3c(c1)c(C1=C(c4cnc5ccccn45)C(=O)NC1=O)cn3CCN(C(=O)N1CC3CCC(C1)O3)C2 [Compound I-14] | > 1000 nM | + (“+” indicates about 0-5%) | 1 to 10 nM | 1 to 10 nM
N#Cc1cc2c3c(c1)c(C1=C(c4cnc5ccccn45)C(=O)NC1=O)cn3CCN(C(=O)N1CCCC(F)(F)C1)C2 [Compound I-15] | > 1000 nM | ++ (“++” indicates about 6-10%) | 1 to 10 nM | 1 to 10 nM
N#Cc1cc2c3c(c1)c(C1=C(c4cnc5ccccn45)C(=O)NC1=O)cn3CCN(C(=O)N1CCC(F)(F)CC1)C2 [Compound I-16] | 100 to 1000 nM | +++ (“+++” indicates greater than about 11%) | 1 to 10 nM | 1 to 10 nM
O=C1NC(=O)C(c2cnc3ccccn23)=C1c1cn2c3c(cc(C(F)(F)F)cc13)CN(C(=O)N1CCC(F)(F)CC1)CC2 [Compound I-17] | > 1000 nM | + (“+” indicates about 0-5%) | 1 to 10 nM | 1 to 10 nM
O=C1NC(=O)C(c2cnc3ccccn23)=C1c1cn2c3c(cc(C(F)(F)F)cc13)CN(C(=O)N1CC3CCC(C1)O3)CC2 [Compound I-18] | – | – | 1 to 10 nM | 1 to 10 nM
NCC1CCN(C(=O)N2CCn3cc(C4=C(c5cnc6ccccn56)C(=O)NC4=O)c4cc(F)cc(c43)C2)CC1 [Compound I-19] | > 1000 nM | +++ (“+++” indicates greater than about 11%) | 1 to 10 nM | 1 to 10 nM
O=C1NC(=O)C(c2cnc3ccccn23)=C1c1cn2c3c(cc(C(F)(F)F)cc13)CN(C(=O)N1CCC(CO)CC1)CC2 [Compound I-20] | > 1000 nM | +++ (“+++” indicates greater than about 11%) | 1 to 10 nM | 1 to 10 nM
N#Cc1cc2c3c(c1)c(C1=C(c4cnc5ccccn45)C(=O)NC1=O)cn3CCN(C(=O)N1CCC(CO)CC1)C2 [Compound I-21] | > 1000 nM | +++ (“+++” indicates greater than about 11%) | 1 to 10 nM | 1 to 10 nM
O=C1NC(=O)C(c2cnc3ccccn23)=C1c1cn2c3c(cc(F)cc13)CN(C(=O)N1CC(F)(F)C(F)(F)C(F)(F)C1)CC2 [Compound I-22] | 1 to 100 nM | ++ (“++” indicates about 6-10%) | 1 to 10 nM | 1 to 10 nM
O=C1NC(=O)C(c2cnc3ccccn23)=C1c1cn2c3c(cc(F)cc13)CN(C(=O)N1CC(F)(F)OC(F)(F)C1)CC2 [Compound I-24] | 1 to 100 nM | ++ (“++” indicates about 6-10%) | 1 to 10 nM | 1 to 10 nM
O=C1NC(=O)C(c2cnc3ccccn23)=C1c1cn2c3c(cc(F)cc13)CN(C(=O)N1CCC(F)(F)C(O)C1)CC2 (stereo not drawn) [Compound I-25] | – | – | 1 to 10 nM | 1 to 10 nM
O=C1NC(=O)C(c2cnc3ccccn23)=C1c1cn2c3c(cc(F)cc13)CN(C(=O)N1CCOCC(F)(F)C1)CC2 [Compound I-27] | 1 to 100 nM | +++ (“+++” indicates greater than about 11%) | 1 to 10 nM | 1 to 10 nM
O=C1NC(=O)C(c2nnc3ccccn23)=C1c1cn2c3c(cc(F)cc13)CN(C(=O)N1CCCCC1)CC2 [Compound I-28] | – | – | 1 to 10 nM | 1 to 10 nM
CN(C)C1CCN(C(=O)N2CCn3cc(C4=C(c5cnc6ccccn56)C(=O)NC4=O)c4cc(F)cc(c43)C2)CC1 [Compound I-36] | – | – | 1 to 10 nM | 1 to 10 nM
CN1CCC(CN(C)C(=O)N2CCn3cc(C4=C(c5cnc6ccccn56)C(=O)NC4=O)c4cc(F)cc(c43)C2)CC1 [Compound I-39] | – | – | 1 to 10 nM | 1 to 10 nM
CN1CCC2(CC1)CCN(C(=O)N1CCn3cc(C4=C(c5cnc6ccccn56)C(=O)NC4=O)c4cc(F)cc(c43)C1)C2 [Compound I-42] | – | – | 1 to 10 nM | 1 to 10 nM
CN(C)C1CCN(C(=O)N2CCn3cc(C4=C(c5cnc6ccccn56)C(=O)NC4=O)c4cc(C#N)cc(c43)C2)CC1 [Compound I-45] | – | – | 1 to 10 nM | 1 to 10 nM
CN1CCC(CN(C)C(=O)N2CCn3cc(C4=C(c5cnc6ccccn56)C(=O)NC4=O)c4cc(C#N)cc(c43)C2)CC1 [Compound I-46] | – | – | 1 to 10 nM | 1 to 10 nM
CN1CCC2(CC1)CCN(C(=O)N1CCn3cc(C4=C(c5cnc6ccccn56)C(=O)NC4=O)c4cc(C#N)cc(c43)C1)C2 [Compound I-47] | – | – | 1 to 10 nM | 1 to 10 nM
